Assay results: patent publication US20250368628A1, “METHODS AND COMPOUNDS FOR MODULATING INHERITED GENETIC DISEASES” (Design Therapeutics, Inc., priority 2022, published 2025)

What was measured:
F35T cells = experiment: Foci reduction in FECD (CAG10-Cy3 FISH, foci per nucleus); assay type: cell-based; conditions: F35T cells, 48 h treatment, foci per nucleus; read-out: FECD EC50, 48 h
How it was run: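 F35T cells, 5000 per well, were treated for 48 h at 37 °C, 5% CO2 in an 8-point dose response. Cells were then fixed in 4% PFA, permeabilized in 70% ethanol and hybridized overnight at 37 °C with a CAG10-Cy3 probe in 30% formamide/2×SSC. After DAPI staining, imaging gave foci per nucleus.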

[1] = tested on: Myotonic Dystrophy 1 affected patient fibroblasts (Coriel GM04602; 1600 CTG repeats); experiment: DM1 foci reduction assay (EC50 assay; CAG10-Cy3 FISH, foci per nucleus); assay type: cell-based; conditions: Homo sapiens, Fibroblast; DM1 patient fibroblasts, 48 h treatment, foci per nucleus; read-out: DM1 EC50, 48 h
How it was run: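 GM04602 DM1 patient fibroblasts (1600 CTG repeats) seeded 24 h, then treated 48 h at 37 °C with an 8-point 1:3 dose series from 3 μM. Cells PFA-fixed, ethanol-permeabilized and hybridized overnight with 5 nM CAG10-Cy3 probe, DAPI counterstained. Imaged at 20×, 4 fields per well, as average foci per nucleus.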

Structure (SMILES)	EC50 (F35T cells) [nM]	EC50 [1] [nM]
Cn1cc(NC(=O)c2nc(NC(=O)CCNC(=O)c3cc(NC(=O)c4nccn4C)cn3C)cn2C)cc1C(=O)NCCCC(=O)Nc1cn(C)c(C(=O)NCCC(=O)Nc2cc(C(=O)Nc3cn(C)c(C(=O)NCCCOCOP(=O)(O)O)n3)n(C)c2)n1 [Compound B-332]	< 100	100 to 500
Cn1cc(NC(=O)c2nc(NC(=O)CCNC(=O)c3cc(NC(=O)c4nccn4C)cn3C)cn2C)cc1C(=O)NCCCC(=O)Nc1cn(C)c(C(=O)NCCC(=O)Nc2cc(C(=O)Nc3cn(C)c(C(=O)NCCC(=O)NC(CO)CO)n3)n(C)c2)n1 [Compound B-333]	100 to 500	500 to 1000
Cn1cc(NC(=O)c2nc(NC(=O)CCNC(=O)c3cc(NC(=O)c4nccn4C)cn3C)cn2C)cc1C(=O)NCCCC(=O)Nc1cn(C)c(C(=O)NCCC(=O)Nc2cc(C(=O)Nc3cn(C)c(C(=O)NCCCNC(CO)CO)n3)n(C)c2)n1 [Compound B-335]	100 to 500	100 to 500
Cn1cc(NC(=O)c2nc(NC(=O)CCNC(=O)c3cc(NC(=O)c4nccn4C)cn3C)cn2C)cc1C(=O)NCCCC(=O)Nc1cn(C)c(C(=O)NCCC(=O)Nc2cc(C(=O)Nc3cn(C)c(C(=O)NCCCCCCCN)n3)n(C)c2)n1 [Compound B-337]	< 100	100 to 500
COC(=O)c1cccc(C#CCCCN(C)CCCNC(=O)c2nc(NC(=O)c3cc(NC(=O)CCNC(=O)c4nc(NC(=O)CCCNC(=O)c5cc(NC(=O)c6nc(NC(=O)CCNC(=O)c7cc(NC(=O)c8nccn8C)cn7C)cn6C)cn5C)cn4C)cn3C)cn2C)c1 [Compound B-341]	< 100	< 100
COC(=O)c1cccc(NCCCCNC(=O)c2nc(NC(=O)c3cc(NC(=O)CCNC(=O)c4nc(NC(=O)CCCNC(=O)c5cc(NC(=O)c6nc(NC(=O)CCNC(=O)c7cc(NC(=O)c8nccn8C)cn7C)cn6C)cn5C)cn4C)cn3C)cn2C)c1 [Compound B-343]	< 100	< 100
Cn1cc(NC(=O)c2nc(NC(=O)CCNC(=O)c3cc(NC(=O)c4nccn4C)cn3C)cn2C)cc1C(=O)NCCCC(=O)Nc1cn(C)c(C(=O)NCCC(=O)Nc2cc(C(=O)Nc3cn(C)c(C(=O)NCCC(=O)N4CCC(C#CC5=CCN(C(=O)OCC6c7ccccc7-c7ccccc76)CC5)CC4)n3)n(C)c2)n1 [Compound B-345]	500 to 1000	> 1000
Cn1cc(NC(=O)c2nc(NC(=O)CCNC(=O)c3cc(NC(=O)c4nccn4C)cn3C)cn2C)cc1C(=O)NCCCC(=O)Nc1cn(C)c(C(=O)NCCC(=O)Nc2cc(C(=O)Nc3cn(C)c(C(=O)NCCC(=O)N4CCC(C#CC5=CCNCC5)CC4)n3)n(C)c2)n1 [Compound B-346]	< 100	100 to 500
Cn1cc(NC(=O)c2nc(NC(=O)CCNC(=O)c3cc(NC(=O)c4nccn4C)cn3C)cn2C)cc1C(=O)NCCCC(=O)Nc1cn(C)c(C(=O)NCCC(=O)Nc2cc(C(=O)Nc3cn(C)c(C(=O)NCCC(=O)N4CC=C(C#CC5CCN(C(=O)OC(C)(C)C)CC5)CC4)n3)n(C)c2)n1 [Compound B-347]	100 to 500	< 100
Cn1cc(NC(=O)c2nc(NC(=O)CCNC(=O)c3cc(NC(=O)c4nccn4C)cn3C)cn2C)cc1C(=O)NCCCC(=O)Nc1cn(C)c(C(=O)NCCC(=O)Nc2cc(C(=O)Nc3cn(C)c(C(=O)NCCC(=O)N4CC=C(C#CC5CCNCC5)CC4)n3)n(C)c2)n1 [Compound B-348]	100 to 500	500 to 1000
COCCOCCOCCOCCOCCOCCC(=O)NCCCCCCn1cc(NC(=O)c2nc(NC(=O)CCNC(=O)c3cc(NC(=O)c4nccn4C)cn3C)cn2C)cc1C(=O)NCCCC(=O)Nc1cn(C)c(C(=O)NCCC(=O)Nc2cc(C(=O)Nc3cn(C)c(C(=O)NCCC(=O)N4CCC(C#CC#CC5CCN(C(=O)OC(C)(C)C)CC5)CC4)n3)n(C)c2)n1 [Compound B-351]	< 100	> 1000
CC(=O)NCCCCCCn1cc(NC(=O)c2nc(NC(=O)CCNC(=O)c3cc(NC(=O)c4nccn4C)cn3C)cn2C)cc1C(=O)NCCCC(=O)Nc1cn(C)c(C(=O)NCCC(=O)Nc2cc(C(=O)Nc3cn(C)c(C(=O)NCCC(=O)N4CCC(C#CC#CC5CCN(C(=O)OC(C)(C)C)CC5)CC4)n3)n(C)c2)n1 [Compound B-356]	500 to 1000	> 1000
CN(CCCN)CCCNC(=O)c1cc(NC(=O)CCNC(=O)c2nc(NC(=O)CCCNC(=O)c3cc(NC(=O)c4nc(NC(=O)CCNC(=O)c5cc(NC(=O)c6nccn6C)cn5C)cn4C)cn3CCCCCCN=[N+]=[N-])cn2C)cn1C [Compound B-358]	> 1000	> 1000
CN(CCCNC(=O)c1cccc(C(=O)OC(C)(C)C)c1)CCCNC(=O)c1cc(NC(=O)CCNC(=O)c2nc(NC(=O)CCCNC(=O)c3cc(NC(=O)c4nc(NC(=O)CCNC(=O)c5cc(NC(=O)c6nccn6C)cn5C)cn4C)cn3CCCCCCN=[N+]=[N-])cn2C)cn1C [Compound B-359]	> 1000	> 1000
COC(=O)c1cccc(C#CCNCCCNC(=O)c2nc(NC(=O)c3cc(NC(=O)CCNC(=O)c4nc(NC(=O)CCCNC(=O)c5cc(NC(=O)c6nc(NC(=O)CCNC(=O)c7cc(NC(=O)c8nccn8C)cn7C)cn6C)cn5C)cn4C)cn3C)cn2C)c1 [Compound B-361]	< 100	< 100
COC(=O)c1ccc(C#CCNCCCNC(=O)c2nc(NC(=O)c3cc(NC(=O)CCNC(=O)c4nc(NC(=O)CCCNC(=O)c5cc(NC(=O)c6nc(NC(=O)CCNC(=O)c7cc(NC(=O)c8nccn8C)cn7C)cn6C)cn5C)cn4C)cn3C)cn2C)cc1 [Compound B-362]	< 100	< 100
CN(CCCNC(=O)OC(C)(C)C)CCCNC(=O)c1nc(NC(=O)c2cc(NC(=O)CCNC(=O)c3nc(NC(=O)CCCNC(=O)c4cc(NC(=O)c5nc(NC(=O)CCNC(=O)c6cc(NC(=O)c7nccn7C)cn6C)cn5C)cn4CCCCCCN=[N+]=[N-])cn3C)cn2C)cn1C [Compound B-363]	< 100	< 100
CN(CCCN)CCCNC(=O)c1nc(NC(=O)c2cc(NC(=O)CCNC(=O)c3nc(NC(=O)CCCNC(=O)c4cc(NC(=O)c5nc(NC(=O)CCNC(=O)c6cc(NC(=O)c7nccn7C)cn6C)cn5C)cn4CCCCCCN=[N+]=[N-])cn3C)cn2C)cn1C [Compound B-364]	> 1000	100 to 500
CN(CCCNC(=O)c1cccc(C(=O)OC(C)(C)C)c1)CCCNC(=O)c1nc(NC(=O)c2cc(NC(=O)CCNC(=O)c3nc(NC(=O)CCCNC(=O)c4cc(NC(=O)c5nc(NC(=O)CCNC(=O)c6cc(NC(=O)c7nccn7C)cn6C)cn5C)cn4CCCCCCN=[N+]=[N-])cn3C)cn2C)cn1C [Compound B-365]	100 to 500	< 100
CCCNC(=O)c1cc(NC(=O)CCNC(=O)c2nc(NC(=O)[C@H](N)CCNC(=O)c3cc(NC(=O)c4nc(NC(=O)CCNC(=O)c5cc(NC(=O)c6nccn6C)cn5C)cn4C)cn3C)cn2C)cn1C [Compound B-366]	> 1000	> 1000
CN(C)CCCNC(=O)c1cc(NC(=O)CCNC(=O)c2nc(NC(=O)[C@H](N)CCNC(=O)c3cc(NC(=O)c4nc(NC(=O)CCNC(=O)c5cc(NC(=O)c6nccn6C)cn5C)cn4C)cn3C)cn2C)cn1C [Compound B-367]	> 1000	> 1000
CN(CCCNC(=O)c1cccc(C(=O)O)c1)CCCNC(=O)c1cc(NC(=O)CCNC(=O)c2nc(NC(=O)[C@H](N)CCNC(=O)c3cc(NC(=O)c4nc(NC(=O)CCNC(=O)c5cc(NC(=O)c6nccn6C)cn5C)cn4C)cn3C)cn2C)cn1C [Compound B-368]	> 1000	> 1000
COC(=O)CCCN(CCCC(=O)OC)Cc1ncc(C2CN(C(=O)CCNC(=O)c3nc(NC(=O)c4cc(NC(=O)CCNC(=O)c5nc(NC(=O)CCCNC(=O)c6cc(NC(=O)c7nc(NC(=O)CCNC(=O)c8cc(NC(=O)c9nccn9C)cn8C)cn7C)cn6C)cn5C)cn4C)cn3C)C2)[nH]1 [Compound B-369]	100 to 500	> 1000
COC(=O)CCCN(CCCC(=O)O)Cc1ncc(C2CN(C(=O)CCNC(=O)c3nc(NC(=O)c4cc(NC(=O)CCNC(=O)c5nc(NC(=O)CCCNC(=O)c6cc(NC(=O)c7nc(NC(=O)CCNC(=O)c8cc(NC(=O)c9nccn9C)cn8C)cn7C)cn6C)cn5C)cn4C)cn3C)C2)[nH]1 [Compound B-370]	> 1000	> 1000
Cn1cc(NC(=O)c2nc(NC(=O)CCNC(=O)c3cc(NC(=O)c4nccn4C)cn3C)cn2C)cc1C(=O)NCCCC(=O)Nc1cn(C)c(C(=O)NCCC(=O)Nc2cc(C(=O)Nc3cn(C)c(C(=O)NCCC(=O)N4CC(c5cnc(CN(CCCC(=O)O)CCCC(=O)O)[nH]5)C4)n3)n(C)c2)n1 [Compound B-371]	> 1000	> 1000
CCCNC(=O)CCNC(=O)c1nc(NC(=O)c2cc(NC(=O)CCNC(=O)c3nc(NC(=O)CCCNC(=O)c4cc(NC(=O)c5nc(NC(=O)CCNC(=O)c6cc(NC(=O)c7nccn7C)cn6C)cn5C)cn4CCOCCNC(=O)OC(C)(C)C)cn3C)cn2C)cn1C [Compound B-372]	< 100	< 100
CCOC(=O)c1nc(NC(=O)c2cc(NC(=O)CCNC(=O)c3nc(NC(=O)CCCNC(=O)c4cc(NC(=O)c5nc(NC(=O)CCNC(=O)c6cc(NC(=O)c7nccn7C)cn6C)cn5C)cn4CCCCCCN=[N+]=[N-])cn3C)cn2C)c[nH]1 [Compound B-373]	> 1000	> 1000
CCOC(=O)c1nc(NC(=O)c2cc(NC(=O)CCNC(=O)c3nc(NC(=O)CCCNC(=O)c4cc(NC(=O)c5nc(NC(=O)CCNC(=O)c6cc(NC(=O)c7nccn7C)cn6C)cn5C)cn4CCCCCCn4cc(COCCOCCOCCOC)nn4)cn3C)cn2C)cn1C [Compound B-374]	> 1000	> 1000
CCOC(=O)c1nc(NC(=O)c2cc(NC(=O)CCNC(=O)c3nc(NC(=O)CCCNC(=O)c4cc(NC(=O)c5nc(NC(=O)CCNC(=O)c6cc(NC(=O)c7nccn7C)cn6C)cn5C)cn4CCCCCCn4nnc5c4-c4ccccc4N(C(=O)CCC(=O)NCCOCCOCCCCCCCl)Cc4ccccc4-5)cn3C)cn2C)cn1C [Compound B-375]	> 1000	> 1000
